The source of these data is US20200352912A1, “ANTIMICROBIAL COMPOSITIONS AND METHODS OF USING THE SAME” (The Board Of Supervisors Of Louisiana State University And …, priority 2018, published 2020).

The test system of experiment [1] is C. albicans and S. aureus. The note with it: mouse, in vivo; cited from earlier work.
Experiment [2] concerns S. aureus in polymicrobial biofilms. As to conditions: 1,600 μg/ml; cited from earlier work.
A further experiment has as its system S. aureus NRS383. The experiment can be described thus: planktonic antimicrobial assay (OD600 growth). Format: cell-based, Staphylococcus aureus. As to conditions: 100 μg/ml (inhibitor-specific concentrations b175), OD600 up to 24 h. The procedure: Effect of COX enzyme inhibitors or PGE2 EP receptor antagonists on microbial growth. The antimicrobial activity of selective COX enzyme inhibitor or PGE2 EP receptor antagonist on the growth of C. albicans DAY185 (A), S. aureus NRS383 (B) and MRSA and MSSA clinical isolates (C). Growth of C. albicans and S. aureus was monitored for up to 24 h in medium alone or supplemented with DMSO or EP receptor antagonists or COX enzyme inhibitor at physiologically relevant concentrations. Data shown are representative of three independent experiments.
C. albicans and S. aureus were grown as described above. […] Cells were grown with shaking as described above, and 1 ml aliquots were removed each hour in duplicate and optical density at 600 nm measured (OD600) by spectrophotometer (Biomate 3S, Thermo Scientific).

In experiment [3] the test system is C. albicans and S. aureus. The experiment can be described thus: mouse C. albicans-S. aureus polymicrobial intra-abdominal infection. The class given is in vivo, mice. The procedure: Effect of inhibition of EP4 receptor signaling on survival. Mice received either vehicle or EP4 receptor antagonist at a dose of 10 mg/kg by i.p. injection as indicated in Materials and Methods. Mortality was assessed using Kaplan Meier test (***P<0.001; n=20/group) compared to control groups. Data shown are representative of three replicate experiments.
The mouse peritonitis/intra-abdominal model was performed as previously described (8). In brief, for MRSA peritonitis, mice were injected intraperitoneally (i.p.) with 4×10^6 CFU or 5×10^6 CFU or 2×10^7 CFU of S. aureus in 0.2 ml of PBS containing 3% hog gastric mucin type III (Sigma Aldrich). Mice injected i.p. with 0.2 ml of mucin/PBS served as a negative infection control. For the intra-abdominal infection with C. albicans and S. aureus, mice were injected i.p. with 7×10^6 CFU of C. albicans and 8×10^7 CFU of S. aureus (8.7×10^7 CFU total) in 0.2 ml of PBS. After inoculation, mice were observed over 10 days for signs of morbidity (hunched posture, inactivity, lethargy, and ruffled fur) and mortality. […] In the MRSA peritonitis experiments, mice were sacrificed at 24 or 48 h post-inoculation to assess microbial burden. Peritoneal cavities were lavaged by injection of 2 ml of sterile PBS followed by gentle massaging of the peritoneal cavity. Peritoneal lavage fluid then was removed using a pipette inserted into a small incision in the abdominal cavity. Spleens were removed, weighed, and mechanically homogenized prior to CFU analysis. Microbial burdens in the peritoneal lavage fluid and spleen were enumerated as described above.
Each inhibitor was prepared fresh as a concentrated stock (20-25 mg/ml) in DMSO and diluted to a working concentration of […] in sterile PBS (final DMSO concentration, 2.3%). A sham treatment containing only 2.3% DMSO in PBS was also prepared. For the MRSA peritonitis study, the EP4 receptor antagonist was administered 2 h after S. aureus inoculation and once daily thereafter until day 4 post inoculation. For the IAI co-infection study, COX inhibitor or vehicle control was administered 4 h prior to and 4 and 8 h after inoculation with C. albicans and S. aureus while the EP receptor antagonists were administered daily starting 1 day prior to and 5 days after infection. All other procedures were performed as described above. Control groups received the vehicle at the same dose interval.
In a final set of experiments, we evaluated the ability of L-161, 982 to reduce lethality in co-infected mice. Mice co-inoculated with the standard 7×106 C. albicans CFU and 8×107 S. aureus CFU (8.7×10^7 CFU total) were treated with L-161, 982 (10 mg/kg) 2 h post infection and once daily afterwards until day 5. […]

“Also recorded” adds a separate entry of the source.

Turning to `COc1ccc2c(c1)c(CC(=O)O)c(C)n2C(=O)c1ccc(Cl)cc1` [indomethacin], the “mortality of co-infected mice” value in experiment [1] was “prevented mortality”.

`CN[C@H](CC(C)C)C(=O)N[C@H]1C(=O)N[C@@H](CC(N)=O)C(=O)N[C@H]2C(=O)N[C@H]3C(=O)N[C@H](C(=O)N[C@H](C(=O)O)c4cc(O)cc(O)c4-c4cc3ccc4O)[C@H](O)c3ccc(c(Cl)c3)Oc3cc2cc(c3O[C@@H]2O[C@H](CO)[C@@H](O)[C@H](O)[C@H]2O[C@H]2C[C@](C)(N)[C@H](O)[C@H](C)O2)Oc2ccc(cc2Cl)[C@H]1O` [vancomycin]: the “viability of S. aureus in polymicrobial biofilms” value in experiment [2] is on record as “no effect on viability”.

For the compound `CC(C(=O)Nc1cc(C#N)ccc1CCCC(=O)O)c1ccc(F)c2ccccc12` (centres unmarked) [ONO AE3 208], in the experiment with S. aureus NRS383, the “growth of S. aureus” value is “no antimicrobial effect”. Besides, the effect on survival entry in experiment [3] (10 mg/kg i.p.) is recorded as “no effect; also recorded: did not enhance survival”. Besides, the “antimicrobial effect on S. aureus in vivo” value in experiment [3] (mouse, in vivo) was “no antimicrobial effect”.
